# Reference: patent publication US8815842B2 (priority 2006, dated 2014)
# Read-outs that look alike come from different tables or passages of the source.
# Tests used:
# [1] = tested on: foot-and-mouth disease virus serotype C; assay type: cell-based
# [2] = tested on: foot-and-mouth disease virus serotype Asia 1; assay type: cell-based
# [3] = tested on: foot-and-mouth disease virus serotype A; assay type: cell-based
# [4] = pig, in vivo, po, 100 mg/kg
# [5] = tested on: foot-and-mouth disease virus (O/JPN/2000 strain); experiment: microbe, parasite or virus in culture; assay type: cell-based; conditions: in Sus scrofa, 72 h, read-out: plaque formation 50% inhibitory rate (IC50)
# [6] = black-haired Japanese cattle, bovine, in vivo, po, 100 mg/kg
# [7] = Corriedale, sheep, in vivo, po, 100 mg/kg
# Vero cells = experiment: cells; assay type: cell-based; conditions: Chlorocebus sabaeus, 96 h, read-out: 50% cell growth inhibitory concentration (IC50)
# [8] = tested on: foot-and-mouth disease virus; conditions: pig, in vivo
compound,measurement,setting,value
"NC(=O)c1nccnc1O [T-1105, 3-oxo-3,4-dihydro-2-pyrazinecarboxamide]",25% or more inhibitory concentration,[1],1.25 µg/mL
same,25% or more inhibitory concentration,[2],0.625 µg/mL
same,25% or more inhibitory concentration,[3],0.313 µg/mL
same,Plasma concentration 2 hrs after administration,[4],75.0 µg/mL
same,Plasma concentration 8 hrs after administration,[4],36.4 µg/mL
same,IC50,[5],1.6 µg/mL
same,Plasma concentration 2 hrs after administration,[6],7.86 µg/mL
same,Plasma concentration 8 hrs after administration,[6],0.173 µg/mL
same,Plasma concentration 2 hrs after administration,[7],30.9 µg/mL
same,Plasma concentration 8 hrs after administration,[7],10.2 µg/mL
same,IC50,Vero cells,≥ 250 µg/mL
same,"change in appearance (lameness, dysstasia, blister formation in feet)",[8],no change in their appearance
same,"plasma viral load, in words",[8],remained at the detection limit or bellow
same,"viral load in the nasal swab, in words",[8],scarcely increased
same,clinical sign,[8]; 400 mg/kg/day,−
same,plasma viral load,[8]; 400 mg/kg/day,<0.14 TCID50/μL
same,toxic finding during the administration period,[8]; 400 mg/kg/day,no toxic finding
same,viral load in the nasal swab,[8]; 400 mg/kg/day,<0.07 TCID50/μL of swab solution
